Assay results taken from publication PMC7286362 (Journal of medicinal chemistry, 2020).
Read-outs that look alike come from different tables or passages of the source.

Assays:
[1] = molecular target: T1, PRMT4 (Homo sapiens, UniProt Q86X55); experiment: Mass spectrometry analysis of covalent binding, PRMT4; details: 15 μM protein, 300 μM compound, 1 h at rt
T1 sequence (Q86X55 1-608): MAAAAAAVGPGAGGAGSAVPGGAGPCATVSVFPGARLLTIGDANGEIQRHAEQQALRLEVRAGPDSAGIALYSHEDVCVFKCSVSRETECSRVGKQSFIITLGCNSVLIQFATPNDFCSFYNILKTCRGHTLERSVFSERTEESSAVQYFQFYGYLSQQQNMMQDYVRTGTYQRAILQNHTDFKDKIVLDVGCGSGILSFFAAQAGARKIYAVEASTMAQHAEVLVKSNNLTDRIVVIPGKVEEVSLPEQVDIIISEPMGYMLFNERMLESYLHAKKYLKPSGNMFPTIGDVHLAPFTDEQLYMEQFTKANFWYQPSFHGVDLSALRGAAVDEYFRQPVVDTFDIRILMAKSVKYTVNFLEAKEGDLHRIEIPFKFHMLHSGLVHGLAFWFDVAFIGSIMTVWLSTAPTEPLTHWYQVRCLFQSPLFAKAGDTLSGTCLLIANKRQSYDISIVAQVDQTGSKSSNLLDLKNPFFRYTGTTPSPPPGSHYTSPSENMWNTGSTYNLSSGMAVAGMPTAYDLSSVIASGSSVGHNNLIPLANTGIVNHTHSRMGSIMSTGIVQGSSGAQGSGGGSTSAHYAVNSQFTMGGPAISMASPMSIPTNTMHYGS

[2] = tested on: HEK293T cells; experiment: Cell viability assay; assay type: cell-based; details: up to 20 μM, 3 days, CCK-8
[3] = molecular target: T2, PRMT3 (Homo sapiens, UniProt O60678); assay type: cell-based; details: HEK293T cells, 20 h, concentrations up to 20 μM
[4] = molecular target: T3, PRMT6 (Homo sapiens, UniProt Q96LA8); assay type: cell-based; details: for inhibition of H3R2me2a in cells: PRMT6-transfected HEK293T cells, 20 h
[5] = tested on: type I PRMTs; experiment: Methyltransferase selectivity assay, type I PRMTs; assay type: biochemical
[6] = molecular target: PRMT1 (Homo sapiens, UniProt Q99873); experiment: Mass spectrometry analysis of covalent binding, PRMT1; details: 15 μM protein, 300 μM compound, 1 h at rt
[7] = tested on: PNT2 (a nontumorigenic prostate cell line); experiment: Cell viability assay; assay type: cell-based; details: up to 20 μM, 3 days, CCK-8
[8] = molecular target: T4, endogenously expressed PRMT4 (Homo sapiens, UniProt Q86X55); experiment: Cellular PRMT4 assay: BAF155-Rme2a levels in MCF7 cells; assay type: cell-based; details: 2 days, concentrations up to 20 μM
T4 sequence (Q86X55 1-608): T1 sequence (Q86X55 1-608)

[9] = molecular target: T3, PRMT6; experiment: Mass spectrometry analysis of covalent binding, PRMT6; details: 15 μM protein, 300 μM compound, 1 h at rt
[10] = molecular target: PRMT8 (Homo sapiens, UniProt Q9NR22); experiment: Mass spectrometry analysis of covalent binding, PRMT8; details: 15 μM protein, 300 μM compound, 1 h at rt
[11] = molecular target: DNMT3A/3L (Homo sapiens, UniProt Q9Y6K1); experiment: Methyltransferase selectivity assay, DNMT3A/3L; assay type: biochemical; details: read-out: inhibition of DNMT3A/3L
[12] = molecular target: T3, PRMT6; experiment: KI and kinact determination from time-dependent IC50 values; assay type: biochemical; details: for time dependence of IC50 against PRMT6: preincubation 1 to 30 min, SPA
[13] = molecular target: T2, PRMT3; experiment: Mass spectrometry analysis of covalent binding, PRMT3; details: 15 μM protein, 300 μM compound, 1 h at rt
[14] = tested on: PKMTs, DNMTs, and type II, III PRMTs; experiment: Methyltransferase selectivity assay, PKMTs, DNMTs and type II, III PRMTs; assay type: biochemical; details: at 10 μM
[15] = tested on: MCF-7 cells; experiment: Cell viability assay; assay type: cell-based; details: up to 20 μM, 3 days, CCK-8
[16] = molecular target: T3, PRMT6; experiment: Scintillation proximity assay; assay type: biochemical; details: SPA, 1 h preincubation

T3 sequence (Q96LA8 whole entry): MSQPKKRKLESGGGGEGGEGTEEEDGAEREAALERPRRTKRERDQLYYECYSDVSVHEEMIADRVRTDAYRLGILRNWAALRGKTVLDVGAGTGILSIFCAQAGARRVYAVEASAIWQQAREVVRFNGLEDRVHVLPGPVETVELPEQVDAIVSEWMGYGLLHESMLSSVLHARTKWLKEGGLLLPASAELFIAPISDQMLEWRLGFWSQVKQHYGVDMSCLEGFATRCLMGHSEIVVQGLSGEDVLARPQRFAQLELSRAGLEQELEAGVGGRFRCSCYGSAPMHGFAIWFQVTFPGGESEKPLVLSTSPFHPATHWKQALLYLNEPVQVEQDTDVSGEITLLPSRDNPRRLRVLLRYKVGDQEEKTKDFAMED
T2 sequence (O60678 whole entry, species assumed): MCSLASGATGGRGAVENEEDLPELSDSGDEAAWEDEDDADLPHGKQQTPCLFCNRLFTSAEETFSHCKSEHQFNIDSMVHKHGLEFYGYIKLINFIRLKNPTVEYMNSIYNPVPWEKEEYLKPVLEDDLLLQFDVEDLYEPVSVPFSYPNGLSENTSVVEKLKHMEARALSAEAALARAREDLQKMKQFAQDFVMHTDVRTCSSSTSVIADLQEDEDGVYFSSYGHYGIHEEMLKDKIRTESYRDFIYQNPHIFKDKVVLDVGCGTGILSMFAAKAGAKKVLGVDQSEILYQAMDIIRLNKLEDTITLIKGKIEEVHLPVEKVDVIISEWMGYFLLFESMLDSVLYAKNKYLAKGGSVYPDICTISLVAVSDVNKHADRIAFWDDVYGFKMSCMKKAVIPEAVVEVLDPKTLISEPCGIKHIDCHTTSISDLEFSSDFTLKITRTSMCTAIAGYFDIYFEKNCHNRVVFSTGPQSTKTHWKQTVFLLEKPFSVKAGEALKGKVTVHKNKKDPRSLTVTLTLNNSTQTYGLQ
DNMT3A/3L, sequence (Q9Y6K1 whole entry, looked up, species assumed): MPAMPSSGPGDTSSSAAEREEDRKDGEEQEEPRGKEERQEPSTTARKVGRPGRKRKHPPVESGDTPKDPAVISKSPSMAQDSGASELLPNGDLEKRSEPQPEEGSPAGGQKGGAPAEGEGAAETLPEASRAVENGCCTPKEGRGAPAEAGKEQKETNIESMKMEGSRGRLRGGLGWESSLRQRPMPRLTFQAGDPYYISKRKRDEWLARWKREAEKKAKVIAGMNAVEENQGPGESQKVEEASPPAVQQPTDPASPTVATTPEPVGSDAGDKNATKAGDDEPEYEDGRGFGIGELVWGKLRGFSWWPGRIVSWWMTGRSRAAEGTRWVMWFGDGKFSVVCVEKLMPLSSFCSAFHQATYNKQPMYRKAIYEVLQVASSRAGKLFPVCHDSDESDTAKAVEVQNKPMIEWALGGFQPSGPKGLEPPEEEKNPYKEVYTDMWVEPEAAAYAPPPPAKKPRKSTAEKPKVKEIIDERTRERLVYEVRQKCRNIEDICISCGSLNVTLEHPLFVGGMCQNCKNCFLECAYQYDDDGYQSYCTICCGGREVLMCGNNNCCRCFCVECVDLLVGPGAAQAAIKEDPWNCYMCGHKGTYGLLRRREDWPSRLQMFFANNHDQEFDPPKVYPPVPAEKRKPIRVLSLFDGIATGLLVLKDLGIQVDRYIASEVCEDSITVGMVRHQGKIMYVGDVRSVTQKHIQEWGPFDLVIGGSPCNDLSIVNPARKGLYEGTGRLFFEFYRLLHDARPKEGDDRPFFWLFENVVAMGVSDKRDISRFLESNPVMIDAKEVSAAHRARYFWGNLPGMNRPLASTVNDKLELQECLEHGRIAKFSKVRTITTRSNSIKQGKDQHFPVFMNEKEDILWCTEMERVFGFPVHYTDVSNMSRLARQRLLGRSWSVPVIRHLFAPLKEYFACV
DNMT3A/3L, sequence (Q9UJW3 whole entry partner, species assumed): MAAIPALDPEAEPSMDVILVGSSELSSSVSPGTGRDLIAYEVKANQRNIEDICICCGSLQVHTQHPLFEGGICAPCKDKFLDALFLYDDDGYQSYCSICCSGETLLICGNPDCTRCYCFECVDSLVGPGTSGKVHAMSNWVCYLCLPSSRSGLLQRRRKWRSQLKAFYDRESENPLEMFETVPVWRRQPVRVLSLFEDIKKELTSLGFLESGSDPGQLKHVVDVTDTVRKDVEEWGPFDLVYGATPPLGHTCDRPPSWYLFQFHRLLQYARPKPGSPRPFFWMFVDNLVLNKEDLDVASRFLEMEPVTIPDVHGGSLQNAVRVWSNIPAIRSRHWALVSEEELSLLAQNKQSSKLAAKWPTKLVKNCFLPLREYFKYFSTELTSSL
PRMT1, sequence (Q99873 whole entry, species assumed): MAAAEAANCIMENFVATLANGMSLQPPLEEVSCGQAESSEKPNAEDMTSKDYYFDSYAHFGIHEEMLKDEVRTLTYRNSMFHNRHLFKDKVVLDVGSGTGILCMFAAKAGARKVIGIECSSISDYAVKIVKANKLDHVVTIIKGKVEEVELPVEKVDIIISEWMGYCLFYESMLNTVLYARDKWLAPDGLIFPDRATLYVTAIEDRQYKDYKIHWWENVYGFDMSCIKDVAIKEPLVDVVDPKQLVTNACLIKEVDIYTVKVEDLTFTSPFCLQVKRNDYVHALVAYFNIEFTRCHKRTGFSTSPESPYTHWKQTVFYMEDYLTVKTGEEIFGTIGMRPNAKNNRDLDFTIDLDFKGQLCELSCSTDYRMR
PRMT8, sequence (Q9NR22 whole entry, species assumed): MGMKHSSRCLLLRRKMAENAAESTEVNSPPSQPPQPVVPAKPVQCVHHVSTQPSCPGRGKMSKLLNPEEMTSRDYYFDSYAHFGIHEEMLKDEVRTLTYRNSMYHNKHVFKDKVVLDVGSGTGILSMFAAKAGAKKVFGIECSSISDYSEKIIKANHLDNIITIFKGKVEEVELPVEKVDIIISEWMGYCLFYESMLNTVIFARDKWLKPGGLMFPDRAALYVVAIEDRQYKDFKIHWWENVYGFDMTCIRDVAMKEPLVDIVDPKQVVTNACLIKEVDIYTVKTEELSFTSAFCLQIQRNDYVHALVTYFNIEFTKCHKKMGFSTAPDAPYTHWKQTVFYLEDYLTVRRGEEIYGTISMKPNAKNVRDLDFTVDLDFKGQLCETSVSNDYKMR

## C=CC(=O)Nc1cccc(-c2c[nH]cc2CN(C)CCN)c1 [Compound 4, N-(3-(4-(((2-Aminoethyl)(methyl)amino)methyl)-1H-pyrrol-3-yl)-phenyl)acrylamide]
[1]
  covalent modification of PRMT4 (MS adduct): no adducts with other type I PRMTs could be detected
[2]
  cytotoxicity in HEK293T cells: not cytotoxic
[3]
  reduction of PRMT3-dependent H4R3me2a in cells: did not significantly reduce this mark
[4]; from cellular assays
  selectivity for PRMT6 over PRMT1 in cells: ~ 4 fold
  selectivity for PRMT6 over PRMT4 in cells: > 20 fold
[5]; at 10 μM
  inhibition of type I PRMTs: > 90%
[5]; at 50 μM
  inhibition of type I PRMTs: > 50%
[6]
  covalent modification of PRMT1 (MS adduct): no adducts with other type I PRMTs could be detected
[7]
  cytotoxicity in PNT2 cells: not cytotoxic
[8]
  reduction of BAF155-Rme2a levels in cells: did not reduce
[9]
  covalent modification of PRMT6 (MS adduct): adduct with mass equal to PRMT6 plus compound 4, with no detectable unmodified PRMT6
[10]
  covalent modification of PRMT8 (MS adduct): no adducts with other type I PRMTs could be detected
[11]
  inhibition at 50 µM: > 50%
[12]
  kinact/KI: 83000 M⁻¹ s⁻¹
  time dependence of IC50 against PRMT6: time-dependent potencies
[13]
  covalent modification of PRMT3 (MS adduct): no adducts with other type I PRMTs could be detected
[14]
  inhibition of PKMTs, DNMTs, and type II, III PRMTs: did not significantly inhibit
[15]
  cytotoxicity in MCF-7 cells: not cytotoxic

## CCC(=O)Nc1cccc(-c2c[nH]cc2CN(C)CCN)c1 [Compound 5, N-(3-(4-(((2-Aminoethyl)(methyl)amino)methyl)-1H-pyrrol-3-yl)-phenyl)propionamide]
[2]
  cytotoxicity in HEK293T cells: not cytotoxic
[3]
  reduction of PRMT3-dependent H4R3me2a in cells: did not significantly reduce this mark
[4]; concentrations up to 10 μM
  inhibition of H3R2me2a in cells: inhibited H3R2me2a, but was less effective than compound 4
[5]; at 10 μM
  inhibition of type I PRMTs: > 40%
[5]; at 50 μM
  inhibition of type I PRMTs: > 80%
[7]
  cytotoxicity in PNT2 cells: not cytotoxic
[8]
  reduction of BAF155-Rme2a levels in cells: did not reduce
[9]
  covalent modification of PRMT6 (MS adduct): neither compound 5 nor compound 7 could modify PRMT6 in a detected level
[12]
  time dependence of IC50 against PRMT6: no significant change in IC50 values
[16]
  pIC50 against PRMT6: 7.6 ± 0.1
[15]
  cytotoxicity in MCF-7 cells: not cytotoxic

## C=CC(=O)Nc1cccc(-c2c[nH]cc2CN(C)CCO)c1 [Compound 7, N-(3-(4-(((2-Hydroxyethyl)(methyl)amino)methyl)-1H-pyrrol-3-yl)phenyl)acrylamide]
[2]
  cytotoxicity in HEK293T cells: not cytotoxic
[3]
  reduction of PRMT3-dependent H4R3me2a in cells: did not significantly reduce this mark
[4]; concentrations up to 10 μM
  inhibition of H3R2me2a in cells: did not significantly inhibit H3R2me2a
[7]
  cytotoxicity in PNT2 cells: not cytotoxic
[8]
  reduction of BAF155-Rme2a levels in cells: did not reduce
[9]
  covalent modification of PRMT6 (MS adduct): neither compound 5 nor compound 7 could modify PRMT6 in a detected level
[15]
  cytotoxicity in MCF-7 cells: not cytotoxic

## CC(C)Oc1ccc(-c2c[nH]cc2CN(C)CCN)cc1 [MS023, reference compound]
[4]; at 2 μM (positive control)
  inhibition of H3R2me2a in cells: effectively inhibited H3R2me2a
